Legend:
[1] = tested on: primary WT mouse splenic B cells; assay: H2AX foci immunostaining in activated B-lymphocytes; type: cell-based; conditions: 100 nM
Experimental: FIG. 15A depicts an analysis of primary WT (AID+/+, closed markers) and AID−/− (open markers) murine B cell proliferation under activating conditions (αCD40 and IL-4 on days 0 and 2) and treated with the indicated doses of C-1523 for 4 days. Measurement of cell proliferation was determined by Trypan Blue staining and counting of viable, non-staining, cells via hemocytometer. Data are represented as the mean cell count for each condition. FIG. 15B depicts data from experiments in which primary B cells from A were stained with PI on day 4 and analyzed via flow cytometry for the percentage of cells that were non-viable, PI-positive (PI+). FIG. 15C depicts RT-PCR analysis of AID expression in cultured human cell lines. Water (H2O) and RNA from HEK293T cells were employed as negative controls for template and AID expression, respectively, and human activated B lymphocyte RNA (Stim B) was used as a positive control. GAPDH expression was included as a loading control. […] Viability was determined by Trypan Blue staining and counting via hemocytometer. […] FIG. 15F depicts quantitation of foci observed in AID−/− and WT cells represented in FIG. 15E. […]
To determine whether the cytotoxic effect of C-1523 in AID-expressing cells was associated with DNA damage overload, the accumulation of unrepaired AID-initiated DSBs was measured by H2AX immunoostaining, in activated mouse B-lymphocytes (FIGS. 15E, 15F). […]

[2] = tested on: Primary mouse B cells (WT); assay: Micronuclei assay; type: cell-based; conditions: 100 nM, WT cells, 3 days
[3] = tested on: AID−/− or p53−/− primary mouse B cells; assay: Micronuclei assay; type: cell-based; conditions: 100 nM, 3 days
[4] = tested on: primary, activated WT versus AID−/− cells; assay: RNASeq and Ingenuity Pathways Analysis; type: cell-based, mouse; conditions: 100 nM, 60 hours after activation
Experimental: FIG. 17A depicts a schematic for the fold-change (FC) analysis performed on RNASeq data from the indicated treatment groups. RNA was prepared from cells 60 hours after activation (αCD40 and IL-4) and treatment with DMSO or 100 nM C-1523. Pathway analysis was performed by Ingenuity Pathway Analysis (IPA). FIGS. 17B-17D depict the top 10 pathways for the Unique to FC1 (FIG. 17B) and FC2 (FIG. 17C) analysis and all pathways for the FC1>FC2 (DOWN) and F2>FC1 (UP) analysis (FIG. 17D). Within each bar (in white), is the ratio of genes from that pathway implicated by IPA. The dashed line indicates the 0.05 significance threshold for significant (bars crossing it) vs non-significant pathways. The mechanism of cell death is non-apoptotic and is via mitotic catastrophe.
C-1523 induces non-apoptotic cell death via non-apoptotic mitotic catastrophe. The surprising lack of apoptotic cell death induced by C-1523 prompted us to evaluate gene expression signatures to identify other potential cell death pathways. […]
RNASeq Analysis. […] The filtered and trimmed reads were then aligned to mm10 using tophat (v2.0.7). The aligned bam file was then passed through Cufflinks (v2.0.2) and reads per gene are counted using htseq-count. edgeR. […]

MEC-1 cells = assay: Micronuclei assay; type: cell-based, human; conditions: 100 nM for 3 days
[5] = tested on: primary splenic B-cells from AID−/− mice; assay: Expansion and viability of activated primary splenic B-cells; conditions: 50-250 nM, four days, αCD40+IL-4 activation

SMILES: CC(=O)Nc1ccc(/C=C/c2ccc(NC(=S)NC(C)C)cc2S(=O)(=O)O)c(S(=O)(=O)O)c1 [C-1523, (E)-5-acetamido-2-(4-(3-isopropylthioureido)-2-sulfonatostyryl)benzenesulfonate]
- fraction of cells with supernumerary foci (3-10 per cell) [1]: significant increase
- H2AX foci ([1]; αCD40 and IL-4): accumulation of H2AX foci
- increase in micronuclei compared to DMSO [2]: 9 fold
- fraction of micronuclei [3]: no increase in the fraction of micronuclei
- most significantly altered pathways (IPA) [4]: did not identify any previously annotated cell death pathways
- micronuclei in treated cells versus vehicle (MEC-1 cells): approximately 3.5 fold
- cellular expansion [5]: expanded identically to vehicle-treated controls
